# Test system: Enterococcus faecalis
# Assay: Antibacterial activity against multidrug resistant Enterococcus faecalis ATCC 51299
# Format: functional
row,SMILES,MIC
1,CCCCCCc1c(-c2ccc(OCCCCNCCc3ccccc3)cc2OCCCCNCCc2ccccc2)oc2cc(OC)cc(O)c2c1=O,4 µg/mL
2,CCCCCCc1c(-c2ccc(OCCCCNCC)cc2OCCCCNCC)oc2cc(OC)cc(O)c2c1=O,2 µg/mL
3,CCCCCCc1c(-c2ccc(OCCN(C)C)cc2OCCN(C)C)oc2cc(OC)cc(O)c2c1=O,4 µg/mL
4,CCCCCCc1c(-c2ccc(OCCCCNCc3ccc(C(F)(F)F)cc3)cc2OCCCCNCc2ccc(C(F)(F)F)cc2)oc2cc(OC)cc(O)c2c1=O,16 µg/mL
5,CCCCCCNCCCCOc1ccc(-c2oc3cc(OC)cc(O)c3c(=O)c2CCCCCC)c(OCCCCNCCCCCC)c1,64 µg/mL
6,CCCCCCc1c(-c2ccc(O)cc2O)oc2cc(OC)cc(O)c2c1=O,8 µg/mL
7,CCCCCCc1c(-c2ccc(OCCCCNCc3ccc(Cl)cc3)cc2OCCCCNCc2ccc(Cl)cc2)oc2cc(OC)cc(O)c2c1=O,32 µg/mL
8,CCCCCCc1c(-c2ccc(OCCCCN3CCCC(C)C3)cc2OCCCCN2CCCC(C)C2)oc2cc(OC)cc(O)c2c1=O (configuration not stated),2 µg/mL
9,CCCCCCc1c(-c2ccc(OCCCCN(CCC)CCC)cc2OCCCCN(CCC)CCC)oc2cc(OC)cc(O)c2c1=O,16 µg/mL

# Test system: Staphylococcus aureus
# Assay: Antibacterial activity against methicillin resistant Staphylococcus aureus clinical isolate 031
# Format: functional
row,SMILES,MIC
1,CCCCCCc1c(-c2ccc(OCCCCNCCc3ccccc3)cc2OCCCCNCCc2ccccc2)oc2cc(OC)cc(O)c2c1=O,4 µg/mL
2,CCCCCCc1c(-c2ccc(OCCCCNCC)cc2OCCCCNCC)oc2cc(OC)cc(O)c2c1=O,2 µg/mL
3,CCCCCCc1c(-c2ccc(OCCN(C)C)cc2OCCN(C)C)oc2cc(OC)cc(O)c2c1=O,4 µg/mL
4,CCCCCCc1c(-c2ccc(OCCCCNCc3ccc(C(F)(F)F)cc3)cc2OCCCCNCc2ccc(C(F)(F)F)cc2)oc2cc(OC)cc(O)c2c1=O,8 µg/mL
5,CCCCCCNCCCCOc1ccc(-c2oc3cc(OC)cc(O)c3c(=O)c2CCCCCC)c(OCCCCNCCCCCC)c1,8 µg/mL
6,CCCCCCc1c(-c2ccc(O)cc2O)oc2cc(OC)cc(O)c2c1=O,4 µg/mL
7,CCCCCCc1c(-c2ccc(OCCCCNCc3ccc(Cl)cc3)cc2OCCCCNCc2ccc(Cl)cc2)oc2cc(OC)cc(O)c2c1=O,32 µg/mL
8,CCCCCCc1c(-c2ccc(OCCCCN3CCCC(C)C3)cc2OCCCCN2CCCC(C)C2)oc2cc(OC)cc(O)c2c1=O (configuration not stated),2 µg/mL
9,CCCCCCc1c(-c2ccc(OCCCCN(CCC)CCC)cc2OCCCCN(CCC)CCC)oc2cc(OC)cc(O)c2c1=O,16 µg/mL

# Test system: Enterococcus faecalis
# Assay: Antibacterial activity against Enterococcus faecalis clinical isolate 7
# Format: functional
row,SMILES,MIC
1,CCCCCCc1c(-c2ccc(OCCCCNCCc3ccccc3)cc2OCCCCNCCc2ccccc2)oc2cc(OC)cc(O)c2c1=O,8 µg/mL
2,CCCCCCc1c(-c2ccc(OCCCCNCC)cc2OCCCCNCC)oc2cc(OC)cc(O)c2c1=O,2 µg/mL
3,CCCCCCc1c(-c2ccc(OCCN(C)C)cc2OCCN(C)C)oc2cc(OC)cc(O)c2c1=O,4 µg/mL
4,CCCCCCc1c(-c2ccc(OCCCCNCc3ccc(C(F)(F)F)cc3)cc2OCCCCNCc2ccc(C(F)(F)F)cc2)oc2cc(OC)cc(O)c2c1=O,32 µg/mL
5,CCCCCCNCCCCOc1ccc(-c2oc3cc(OC)cc(O)c3c(=O)c2CCCCCC)c(OCCCCNCCCCCC)c1,32 µg/mL
6,CCCCCCc1c(-c2ccc(O)cc2O)oc2cc(OC)cc(O)c2c1=O,4 µg/mL
7,CCCCCCc1c(-c2ccc(OCCCCNCc3ccc(Cl)cc3)cc2OCCCCNCc2ccc(Cl)cc2)oc2cc(OC)cc(O)c2c1=O,32 µg/mL
8,CCCCCCc1c(-c2ccc(OCCCCN3CCCC(C)C3)cc2OCCCCN2CCCC(C)C2)oc2cc(OC)cc(O)c2c1=O (configuration not stated),2 µg/mL
9,CCCCCCc1c(-c2ccc(OCCCCN(CCC)CCC)cc2OCCCCN(CCC)CCC)oc2cc(OC)cc(O)c2c1=O,16 µg/mL

# Test system: Staphylococcus aureus
# Assay: Antibacterial activity against methicillin resistant Staphylococcus aureus clinical isolate 011
# Format: functional
row,SMILES,MIC
1,CCCCCCc1c(-c2ccc(OCCCCNCCc3ccccc3)cc2OCCCCNCCc2ccccc2)oc2cc(OC)cc(O)c2c1=O,4 µg/mL
2,CCCCCCc1c(-c2ccc(OCCCCNCC)cc2OCCCCNCC)oc2cc(OC)cc(O)c2c1=O,2 µg/mL
3,CCCCCCc1c(-c2ccc(OCCN(C)C)cc2OCCN(C)C)oc2cc(OC)cc(O)c2c1=O,2 µg/mL
4,CCCCCCc1c(-c2ccc(OCCCCNCc3ccc(C(F)(F)F)cc3)cc2OCCCCNCc2ccc(C(F)(F)F)cc2)oc2cc(OC)cc(O)c2c1=O,8 µg/mL
5,CCCCCCNCCCCOc1ccc(-c2oc3cc(OC)cc(O)c3c(=O)c2CCCCCC)c(OCCCCNCCCCCC)c1,16 µg/mL
6,CCCCCCc1c(-c2ccc(O)cc2O)oc2cc(OC)cc(O)c2c1=O,4 µg/mL
7,CCCCCCc1c(-c2ccc(OCCCCNCc3ccc(Cl)cc3)cc2OCCCCNCc2ccc(Cl)cc2)oc2cc(OC)cc(O)c2c1=O,16 µg/mL
8,CCCCCCc1c(-c2ccc(OCCCCN3CCCC(C)C3)cc2OCCCCN2CCCC(C)C2)oc2cc(OC)cc(O)c2c1=O (configuration not stated),2 µg/mL
9,CCCCCCc1c(-c2ccc(OCCCCN(CCC)CCC)cc2OCCCCN(CCC)CCC)oc2cc(OC)cc(O)c2c1=O,8 µg/mL

# Test system: Staphylococcus aureus
# Assay: Antibacterial activity against methicillin resistant Staphylococcus aureus clinical isolate 003
# Format: functional
row,SMILES,MIC
1,CCCCCCc1c(-c2ccc(OCCCCNCCc3ccccc3)cc2OCCCCNCCc2ccccc2)oc2cc(OC)cc(O)c2c1=O,4 µg/mL
2,CCCCCCc1c(-c2ccc(OCCCCNCC)cc2OCCCCNCC)oc2cc(OC)cc(O)c2c1=O,1 µg/mL
3,CCCCCCc1c(-c2ccc(OCCN(C)C)cc2OCCN(C)C)oc2cc(OC)cc(O)c2c1=O,1 µg/mL
4,CCCCCCc1c(-c2ccc(OCCCCNCc3ccc(C(F)(F)F)cc3)cc2OCCCCNCc2ccc(C(F)(F)F)cc2)oc2cc(OC)cc(O)c2c1=O,16 µg/mL
5,CCCCCCNCCCCOc1ccc(-c2oc3cc(OC)cc(O)c3c(=O)c2CCCCCC)c(OCCCCNCCCCCC)c1,8 µg/mL
6,CCCCCCc1c(-c2ccc(O)cc2O)oc2cc(OC)cc(O)c2c1=O,4 µg/mL
7,CCCCCCc1c(-c2ccc(OCCCCNCc3ccc(Cl)cc3)cc2OCCCCNCc2ccc(Cl)cc2)oc2cc(OC)cc(O)c2c1=O,32 µg/mL
8,CCCCCCc1c(-c2ccc(OCCCCN3CCCC(C)C3)cc2OCCCCN2CCCC(C)C2)oc2cc(OC)cc(O)c2c1=O (configuration not stated),1 µg/mL
9,CCCCCCc1c(-c2ccc(OCCCCN(CCC)CCC)cc2OCCCCN(CCC)CCC)oc2cc(OC)cc(O)c2c1=O,8 µg/mL

# Test system: Staphylococcus aureus
# Assay: Antibacterial activity against Staphylococcus aureus clinical isolate 31
# Format: functional
row,SMILES,MIC
1,CCCCCCc1c(-c2ccc(OCCCCNCCc3ccccc3)cc2OCCCCNCCc2ccccc2)oc2cc(OC)cc(O)c2c1=O,4 µg/mL
2,CCCCCCc1c(-c2ccc(OCCCCNCC)cc2OCCCCNCC)oc2cc(OC)cc(O)c2c1=O,1 µg/mL
3,CCCCCCc1c(-c2ccc(OCCN(C)C)cc2OCCN(C)C)oc2cc(OC)cc(O)c2c1=O,2 µg/mL
4,CCCCCCc1c(-c2ccc(OCCCCNCc3ccc(C(F)(F)F)cc3)cc2OCCCCNCc2ccc(C(F)(F)F)cc2)oc2cc(OC)cc(O)c2c1=O,8 µg/mL
5,CCCCCCNCCCCOc1ccc(-c2oc3cc(OC)cc(O)c3c(=O)c2CCCCCC)c(OCCCCNCCCCCC)c1,4 µg/mL
6,CCCCCCc1c(-c2ccc(O)cc2O)oc2cc(OC)cc(O)c2c1=O,4 µg/mL
7,CCCCCCc1c(-c2ccc(OCCCCNCc3ccc(Cl)cc3)cc2OCCCCNCc2ccc(Cl)cc2)oc2cc(OC)cc(O)c2c1=O,16 µg/mL
8,CCCCCCc1c(-c2ccc(OCCCCN3CCCC(C)C3)cc2OCCCCN2CCCC(C)C2)oc2cc(OC)cc(O)c2c1=O (configuration not stated),2 µg/mL
9,CCCCCCc1c(-c2ccc(OCCCCN(CCC)CCC)cc2OCCCCN(CCC)CCC)oc2cc(OC)cc(O)c2c1=O,8 µg/mL

# Test system: Enterococcus faecalis
# Assay: Antibacterial activity against Enterococcus faecalis clinical isolate 13
# Format: functional
row,SMILES,MIC
1,CCCCCCc1c(-c2ccc(OCCCCNCCc3ccccc3)cc2OCCCCNCCc2ccccc2)oc2cc(OC)cc(O)c2c1=O,4 µg/mL
2,CCCCCCc1c(-c2ccc(OCCCCNCC)cc2OCCCCNCC)oc2cc(OC)cc(O)c2c1=O,1 µg/mL
3,CCCCCCc1c(-c2ccc(OCCN(C)C)cc2OCCN(C)C)oc2cc(OC)cc(O)c2c1=O,2 µg/mL
4,CCCCCCc1c(-c2ccc(OCCCCNCc3ccc(C(F)(F)F)cc3)cc2OCCCCNCc2ccc(C(F)(F)F)cc2)oc2cc(OC)cc(O)c2c1=O,8 µg/mL
5,CCCCCCNCCCCOc1ccc(-c2oc3cc(OC)cc(O)c3c(=O)c2CCCCCC)c(OCCCCNCCCCCC)c1,64 µg/mL
6,CCCCCCc1c(-c2ccc(O)cc2O)oc2cc(OC)cc(O)c2c1=O,8 µg/mL
7,CCCCCCc1c(-c2ccc(OCCCCNCc3ccc(Cl)cc3)cc2OCCCCNCc2ccc(Cl)cc2)oc2cc(OC)cc(O)c2c1=O,32 µg/mL
8,CCCCCCc1c(-c2ccc(OCCCCN3CCCC(C)C3)cc2OCCCCN2CCCC(C)C2)oc2cc(OC)cc(O)c2c1=O (configuration not stated),2 µg/mL
9,CCCCCCc1c(-c2ccc(OCCCCN(CCC)CCC)cc2OCCCCN(CCC)CCC)oc2cc(OC)cc(O)c2c1=O,16 µg/mL

# Test system: Staphylococcus aureus
# Assay: Antibacterial activity against Staphylococcus aureus clinical isolate 29
# Format: functional
row,SMILES,MIC
1,CCCCCCc1c(-c2ccc(OCCCCNCCc3ccccc3)cc2OCCCCNCCc2ccccc2)oc2cc(OC)cc(O)c2c1=O,8 µg/mL
2,CCCCCCc1c(-c2ccc(OCCCCNCC)cc2OCCCCNCC)oc2cc(OC)cc(O)c2c1=O,2 µg/mL
3,CCCCCCc1c(-c2ccc(OCCN(C)C)cc2OCCN(C)C)oc2cc(OC)cc(O)c2c1=O,1 µg/mL
4,CCCCCCc1c(-c2ccc(OCCCCNCc3ccc(C(F)(F)F)cc3)cc2OCCCCNCc2ccc(C(F)(F)F)cc2)oc2cc(OC)cc(O)c2c1=O,16 µg/mL
5,CCCCCCNCCCCOc1ccc(-c2oc3cc(OC)cc(O)c3c(=O)c2CCCCCC)c(OCCCCNCCCCCC)c1,16 µg/mL
6,CCCCCCc1c(-c2ccc(O)cc2O)oc2cc(OC)cc(O)c2c1=O,4 µg/mL
7,CCCCCCc1c(-c2ccc(OCCCCNCc3ccc(Cl)cc3)cc2OCCCCNCc2ccc(Cl)cc2)oc2cc(OC)cc(O)c2c1=O,32 µg/mL
8,CCCCCCc1c(-c2ccc(OCCCCN3CCCC(C)C3)cc2OCCCCN2CCCC(C)C2)oc2cc(OC)cc(O)c2c1=O (configuration not stated),2 µg/mL
9,CCCCCCc1c(-c2ccc(OCCCCN(CCC)CCC)cc2OCCCCN(CCC)CCC)oc2cc(OC)cc(O)c2c1=O,16 µg/mL
